From patent publication US8853264B2, “Use of lignan compounds for treating or preventing inflammatory disease” (Newtree Industry Co., Ltd., priority 2005, dated 2014)

Experiments:
IgE = assay: Total IgE in serum, mite antigen-induced atopic dermatitis; format: in vivo, NC/Nga mice; details: for IgE: 2 weeks, serum; for total IgE level compared to the positive control group: p<0.01
Protocol: 8-week-old NC/Nga mice (20-25 g) were purchased from Chungang Lab. Animal. After adapting for 1 week, the NC/Nga mouse was anesthetized with 90% ethyl ether (Ducsan, Korea) and hair was removed from the occipital region and the back of the mouse using depilatory cream (Reckitt Benckiser, France). After allowing micro wound healing for a day, 100 mg of mite antigen cream (Biostir, Inc. Japan) comprising Dermatophagoides farina, which causes atopic dermatitis, as a main ingredient was evenly applied on the ear, occipital region and back, 3 times a week (for 5 weeks, from week 9 to week 13). 2 hours before application of the mite antigen cream, 4% SDS solution was applied at the same area to increase transdermal absorption of the mite antigen cream by inducing the breakdown of skin fats and cuticle layer. From week 3 following the application, IgE value was measured to quantitate the degree of atopic dermatitis. Also during the drug treatment period (week 12 to week 13), 100 mg of the mite antigen cream was applied 3 times a week to prevent spontaneous healing of the atopic dermatitis.
In order to induce atopic dermatitis, 100 mg of mite antigen cream was applied on the ear, occipital region and back of NC/Nga mouse (9 to 11 weeks old), except for the negative control group, 3 times a week, 2 hours after the application of 4% SDS solution. Three weeks later, it was observed whether atopic dermatitis was induced by checking skin rash, erythema, cornification, or the like. Atopic dermatitis was induced in all groups except for the negative control group. For drug treatment and evaluation of therapeutic effect, mice were grouped into 12 groups, 6 oral administration groups and 6 topical application groups (each consisting of negative control group, positive control group, macelignan low conc. group, macelignan high conc. group, nutmeg extract low conc. group, and nutmeg extract high conc. group), with n=5 per cage. During the following drug treatment and evaluation period of 2 weeks (12 to 13 weeks old), the negative control groups, which had not been treated with 4% SDS solution and mite antigen cream, were treated with physiological saline (oral administration group) or base cream (topical application group) every day, and the positive control groups, which had been treated with 100 mg of mite antigen cream 2 hours after application of 4% SDS solution, 3 times every week, were treated with physiological saline (oral administration group) or base cream (topical application group). The oral administration groups were treated with 100 mg of mite antigen cream 2 hours after application of 4% SDS solution, 3 times every week, and were treated with macelignan or nutmeg extract at low concentration (50 mg/kg/day) or high concentration (150 mg/kg/day) every day. The topical application groups were treated with 100 mg of mite antigen cream 2 hours after application of 4% SDS solution, 3 times every week, and were treated with macelignan cream or nutmeg extract cream at low concentration (20 mg/kg/day) or high concentration (60 mg/kg/day) every day. Transepidermal water loss (TEWL), skin hydration and erythema index were measured one day before the end of the test. Serum was obtained by retro-orbital blood sampling. After the end of the test (14 weeks old) spleen and skin tissues from occipital region and back were sampled and stored at −70° C. ALN (axillary lymph node) was stored in DMEM containing 2% FBS (fetal bovine serum). The skin tissues were stored in 10% formalin solution.
Blood was taken by retro-orbital blood sampling using a capillary tube (Chase Scientific Glass, Inc., USA), which was centrifuged at 13,000 rpm to obtain serum. IgE level was measured using a mouse IgE ELISA kit (Immunology Consultants Laboratory, Inc., USA).

IL-13 mRNA = IL-13 mRNA level in skin lesion (RT-PCR); format: in vivo, NC/Nga mice
Protocol: In order to induce atopic dermatitis, 100 mg of mite antigen cream was applied on the ear, occipital region and back of NC/Nga mouse (9 to 11 weeks old), except for the negative control group, 3 times a week, 2 hours after the application of 4% SDS solution. Three weeks later, it was observed whether atopic dermatitis was induced by checking skin rash, erythema, cornification, or the like. Atopic dermatitis was induced in all groups except for the negative control group. […] Transepidermal water loss (TEWL), skin hydration and erythema index were measured one day before the end of the test. […]
After the end of the experiment, skin tissue was isolated from the occipital region to the back of the mouse, immersed in liquid nitrogen, pulverized using a mortar, dissolved in 500 μL of TRIzol® (InvitrogenLife Technologies, USA), and then homogenized using a homogenizer in order to measure mRNA level of cytokines in skin lesion. […] After the centrifuge, the supernatant was discarded and the remaining pellets were washed 2 times with 100% ethanol, dried, and then subjected to RNA quantification by spectrophotometry. […]

glycoprotein (mucin) = assay: Glycoprotein level in BAL fluid (ELISA), asthma model; format: in vivo, C57BL/6 (B6) male mice; details: oral 400 μg/g and 800 μg/g
Protocol: 5 μL of allergen, AP (aspergillus protease, 1 mg/mL, Sigma-Aldrich, St. Louis, Mo.) was mixed with 45 μL of OVA (chicken egg ovalbumin, 0.5 mg/mL, Sigma-Aldrich). After 3 intraperitoneal injections with 4-day intervals, asthma was induced by 2 intranasal challenges with 4-day interval. The intranasal challenge was performed under isoflurane inhalational anesthesia. Macelignan dissolved in corn oil was orally administered every day.
Within 24 hours after the last allergen challenge, the mouse was anesthetized by intraperitoneal injection of 0.1 mg/g sodium pentobarbital. After tracheal intubation, flexiVent (Scireq®, Montreal, Canada) was connected to maintain stable ventilation. Thereafter, striated muscle was relaxed by intravenous (IV) administration of 0.08 mg/kg pancuronium (Sigma-Aldrich). […]
When asthma is induced, secretion of mucin increases in the airway. Glycoprotein ELISA was carried out to quantitate mucin in BAL fluid. […] After blocking, followed by treating with biotinylated jacalin and then with streptavidin-alkaline phosphatase, substrate was added and absorbance was measured at 405 nm Glycoprotein level in the BAL fluid was determined by comparing with the standard curve obtained using the standard solution.

[1] = oral administration 50 and 150 mg/kg
[2] = topical application 20 and 60 mg/kg

Structure (SMILES): COc1cc(C[C@H](C)[C@H](C)Cc2ccc3c(c2)OCO3)ccc1O (single isomer, unassigned) [macelignan]
- IgE (IgE; oral administration 50 mg/kg/day): 19.6 ± 13.5 µg/mL
- IgE (IgE; oral administration 150 mg/kg/day): 16.6 ± 5.3 µg/mL
- total IgE level compared to the positive control group (IgE; [1]): statistically significant decrease in total IgE level
- total IgE level compared to the positive control group (IgE; [2]): statistically significant decrease in total IgE level
- IgE (IgE; topical application (cream) 20 mg/kg/day): 22.1 ± 3.6 µg/mL
- IgE (IgE; topical application (cream) 60 mg/kg/day): 18.6 ± 4.1 µg/mL
- IL-13 mRNA level in skin lesion (IL-13 mRNA; [1]): statistically significant effect of decreasing IL-13 mRNA level
- IL-13 mRNA level in skin lesion (IL-13 mRNA; [2]): effect of decreasing IL-13 mRNA level
- glycoprotein level in the BAL fluid (glycoprotein (mucin)): decreased glycoprotein level
